In patent US7431958B2, “Use of fraction from Cinnamomum zeylanicum for preserving food” (Council of Scientific & Industrial Research, priority 2003, dated 2008) one finds antioxidant activity data, which are given here for one compound.

Test [1] is described as follows: antioxidant activity using DPPH method. From the text: The water extract obtained in the above methods was screened for antioxidant activity using 1,1-diphenyl-2-picrylhydrazyl (DPPH) [J. Agricultural and Food Chemistry, 50, 81-86, 2002].
Background: Loss of DPPH colour is used to gauge radical scavenging.

Test [2] is described as follows: antioxidant activity using β-carotene-linoleate model system. As to conditions: β-carotene-linoleate method. From the text:
The water extract obtained, was screened for antioxidant activity using β-carotene-linoleate model systems.

On to `COc1ccc(O)c(C(C)(C)C)c1` [BHA, butylated hydroxyanisole], for which the antioxidant activity in test [1] (25 ppm) is on record as 71%; in test [1] (50 ppm), 94%; in test [2] (100 ppm), 81%; in test [2] (200 ppm), 89%.
